Read-outs that look alike come from different tables or passages of the source.
Tested on: IL-4 stimulated expression of CD23 in human Ramos B cells (JAK-1 and JAK-3)
Test: Assay for Ramos B-Cell Line Stimulated with IL-4 (CD23 upregulation, FACS)
Format: cell-based
Details: Ramos B cells stimulated with IL-4, CD23 expression by FACS, read-out: IC50, Example 41
How it was run: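 Steps: Ramos B cells are suspended in RPMI with 5% serum, exposed to compound for 1 h at 37 °C, stimulated with IL-4 (final 50 units/mL) for 20-24 h, stained for CD23 and analysed by flow cytometry. IC50 is calculated.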

SMILES | IC50 [nM] | IC50 (Homo sapiens, Ramos) [nM]
CCNC(=O)NCc1cccc(Nc2nc(Nc3cccc(S(N)(=O)=O)c3)ncc2F)c1 [III-117, N2-(3-aminosulfonyl)phenyl-N4-(3-ethylaminocarbonylaminomethyl)phenyl-5-fluoro-2,4-pyrimidinediamine] | 397 | –
CCNC(=O)NCc1ccc(Nc2nc(Nc3ccc(S(N)(=O)=O)cc3)ncc2F)cc1 [III-119, N2-(4-Aminosulfonylphenyl)-N4-(4-ethylaminocarbonylaminomethylphenyl]-5-fluoro-2,4-pyrimidinediamine] | – | 1300
CCNC(=O)NCCc1ccc(Nc2nc(Nc3ccc(S(N)(=O)=O)cc3)ncc2F)cc1 [III-122, N2-(4-aminosulfonyl)phenyl-N4-[4-(2-ethylaminocarbonylamino)ethyl]phenyl-5-fluoro-2,4-pyrimidinediamine] | 539 | –
CCNC(=O)NCCc1ccc(Nc2nc(Nc3ccc(C)c(S(N)(=O)=O)c3)ncc2F)cc1 [III-124, N2-(3-aminosulfonyl-4-methyl)phenyl-N4-[4-(2-ethylaminocarbonylamino)ethyl]phenyl-5-fluoro-2,4-pyrimidinediamine] | 295 | –
CCCN(Cc1ccc(Nc2nc(Nc3ccc(S(N)(=O)=O)cc3)ncc2F)cc1)C(N)=O [III-125, N2-(4-aminosulfonyl)phenyl-N4-[4-(N-carbamoyl-N-propyl)aminomethyl]phenyl-5-fluoro-2,4-pyrimidinediamine] | 836 | –
NS(=O)(=O)c1ccc(Nc2ncc(F)c(Nc3cccc(-c4cnco4)c3)n2)cc1 [IV-3, N2-(4-Aminosulfonylphenyl)-5-fluoro-N4-[3-(1,3-oxazol-5-yl)phenyl]-2,4-pyrimidinediamine] | – | 93.2
CNS(=O)(=O)c1cccc(Nc2nc(Nc3cccc(S(N)(=O)=O)c3)ncc2F)c1 [IV-11, N2-(3-Aminosulfonylhenyl)-5-fluoro-N4-[3-(N-methylaminosulfonyl)phenyl]-2,4-pyrimidinediamine] | 367 | –
C#CCn1ccc2ccc(Nc3nc(Nc4ccc(C)c(S(N)(=O)=O)c4)ncc3F)cc21 [IX-3, N2-(3-Aminosulfonyl-4-methylphenyl)-5-fluoro-N4-[1-(propyn-3-yl)indol-6-yl]-2,4-pyrimidinediamine] | – | 115
C#CCn1ccc2ccc(Nc3nc(Nc4cccc(S(N)(=O)=O)c4)ncc3F)cc21 [IX-4, N2-(3-Aminosulfonylphenyl)-5-fluoro-N4-[1-(propyn-3-yl)indol-6-yl]-2,4-pyrimidinediamine] | – | 120
Cc1ccc(Nc2ncc(F)c(Nc3ccc4c(C(N)=O)c[nH]c4c3)n2)cc1S(N)(=O)=O [IX-9, N4-[3-(Aminocarbonyl)-1H-indol-6-yl]-N2-(3-aminosulfonyl-4-methylphenyl)-5-fluoro-2,4-pyrimidinediamine] | – | 8880
NC(=O)c1c[nH]c2cc(Nc3nc(Nc4ccc(Cl)c(S(N)(=O)=O)c4)ncc3F)ccc12 [IX-10, N4-[3-(Aminocarbonyl)-1H-indol-6-yl]-N2-(3-aminosulfonyl-4-chlorophenyl)-5-fluoro-2,4-pyrimidinediamine] | – | 6410
CC(=O)N1CCN(C(=O)c2ccc(Nc3nc(Nc4cccc(S(N)(=O)=O)c4)ncc3F)cc2)CC1 [IX-23, N4-[4-(1-Acetyl-4-piperizinyl)carbonylphenyl]-N2-(3-Aminosulfonylphenyl)-5-fluoro-2,4-pyrimidinediamine] | 9580 | –
CNS(=O)(=O)c1cc(Nc2ncc(F)c(Nc3ccc(C(=O)N4CCN(C(C)=O)CC4)cc3)n2)ccc1C [IX-25, N4-[4-(1-Acetyl-4-piperizinyl)carbonylphenyl]-5-fluoro-N2-[3-(N-methylaminosulfony)-4-methylphenyl]-2,4-pyrimidinediamine] | 6310 | –
CS(=O)(=O)N1CCN(C(=O)c2ccc(Nc3nc(Nc4cccc(S(N)(=O)=O)c4)ncc3F)cc2)CC1 [IX-29, N2-(3-Aminosulfonylphenyl)-5-fluoro-N4-[4-(1-methanesulfonyl-4-piperizinyl)carbonylphenyl]-2,4-pyrimidinediamine] | 3460 | –
CNS(=O)(=O)c1cc(Nc2ncc(F)c(Nc3ccc(C(=O)N4CCN(S(C)(=O)=O)CC4)cc3)n2)ccc1C [IX-31, 5-Fluoro-N2-[3-(N-methylaminosulfony)-4-methylphenyl]-5-fluoro-N4-[4-(1-methanesulfonyl-4-piperizinyl)carbonylphenyl]-2,4-pyrimidinediamine] | 1400 | –
CNS(=O)(=O)c1cc(Nc2ncc(F)c(Nc3ccc(C(=O)N4CCSCC4)cc3)n2)ccc1C [IX-33, 5-Fluoro-N2-[3-(N-methylaminosulfony)-4-methylphenyl]-5-fluoro-N4-[4-(4-thiomorpholino)carbonylphenyl]-2,4-pyrimidinediamine] | 521 | –
NS(=O)(=O)c1ccc(Nc2ncc(F)c(Nc3ccc(C(=O)N4CCSCC4)cc3)n2)cc1 [IX-36, N2-(4-Aminosulfonylphenyl)-5-fluoro-N4-[4-(4-thiomorpholinyl)carbonylphenyl]-2,4-pyrimidinediamine] | – | 1040

SMILES | IC50 [nM] | IC50 (Homo sapiens, Ramos) [nM]
NS(=O)(=O)c1cccc(Nc2ncc(F)c(Nc3ccc(C(=O)N4CCS(=O)(=O)CC4)cc3)n2)c1 [IX-37, N2-(3-Aminosulfonylphenyl)-N4-[4-(1,1-dioxo-4-thiomorpholinyl)carbonylphenyl]-5-fluoro-2,4-pyrimidinediamine] | – | 3700
Cc1ccc(Nc2ncc(F)c(Nc3ccc(C(=O)N4CCS(=O)(=O)CC4)cc3)n2)cc1S(N)(=O)=O [IX-38, N2-(3-Aminosulfonyl-4-methylphenyl)-N4-[4-(1,1-dioxo-4-thiomorpholinyl)carbonylphenyl]-5-fluoro-2,4-pyrimidinediamine] | – | 2310
CNS(=O)(=O)c1cc(Nc2ncc(F)c(Nc3ccc(C(=O)N4CCS(=O)(=O)CC4)cc3)n2)ccc1C [IX-39, N4-[4-(1,1-dioxo-4-thiomorpholinyl)carbonylphenyl]-5-Fluoro-N2-[3-(N-methylaminosulfony)-4-methylphenyl]-2,4-pyrimidinediamine] | 1400 | –
Cc1ccc(Nc2ncc(F)c(N[C@@H]3CCN(C(=O)CC#N)C3)n2)cc1S(N)(=O)=O [IX-45, N2-(3-Aminosulfonyl-4-methylphenyl)-N4-[(4R)-1-(2-cyanoacetyl)-pyrrolidin-4-yl)-5-fluoro-2,4-pyrimidinediamine] | – | 3620
CNS(=O)(=O)c1ccc(Nc2ncc(F)c(Nc3ccc(OC)c(OC)c3)n2)cc1OC [IX-50, N4-(3,4-Dimethoxyphenyl)-5-fluoro-N2-[4-(N-methyl)aminosulfonyl-3-methoxyphenyl]-2,4-pyrimidinediamine] | – | 179
CNS(=O)(=O)c1ccc(Nc2ncc(F)c(Nc3cc(OC)cc(OC)c3)n2)cc1OC [IX-51, N4-(3,5-Dimethoxyphenyl)-5-fluoro-N2-[4-(N-methyl)aminosulfonyl-3-methoxyphenyl]-2,4-pyrimidinediamine] | – | 240
CNS(=O)(=O)c1ccc(Nc2ncc(F)c(Nc3ccc(Cl)c(C(F)(F)F)c3)n2)cc1OC [IX-52, N4-(4-Chloro-3-trifluoromethylphenyl)-5-fluoro-N2-[4-(N-methyl)aminosulfonyl-3-methoxyphenyl]-2,4-pyrimidinediamine] | – | 117
CNS(=O)(=O)c1ccc(Nc2ncc(F)c(Nc3ccc(OC(F)(F)F)c(Cl)c3)n2)cc1OC [IX-53, N4-(3-Chloro-4-trifluoromethoxyphenyl)-5-fluoro-N2-[4-(N-methyl)aminosulfonyl-3-methoxyphenyl]-2,4-pyrimidinediamine] | – | 240
CNS(=O)(=O)c1ccc(Nc2ncc(F)c(Nc3cccc(O)c3)n2)cc1OC [VI-1, 5-Fluoro-N4-(3-hydroxyphenyl)-N2-[4-(N-methyl)aminosulfonyl-3-methoxyphenyl]-2,4-pyrimidinediamine] | – | 205
COC(=O)CNS(=O)(=O)c1cccc(Nc2ncc(F)c(Nc3ccc(OC)c(Cl)c3)n2)c1 [VI-7, N4-(3-Chloro-4-methoxyphenyl)-5-fluoro-N2-[3-(N-methoxycarbonylmethylene)aminosulfonylphenyl]-2,4-pyrimidinediamine] | 766 | –
COC(=O)CNS(=O)(=O)c1cccc(Nc2ncc(F)c(Nc3ccc(Cl)c(Cl)c3)n2)c1 [VI-8, N4-(3,4-Dichlorophenyl)-5-fluoro-N2-[3-(N-methoxycarbonylmethylene)aminosulfonylphenyl]-2,4-pyrimidinediamine] | 2280 | –
COc1ccc(N(C)c2nc(Nc3ccc(C)c(S(N)(=O)=O)c3)ncc2F)cc1Cl [VI-19, N2-(3-Aminosulfonyl-4-methylphenyl)-N4-(3-chloro-4-methoxyphenyl)-5-fluoro-N4-methyl-2,4-pyrimidinediamine] | – | 1030
COc1ccc(N(C)c2nc(Nc3cc(C)c(F)c(S(N)(=O)=O)c3)ncc2F)cc1Cl [VI-20, N2-(3-Aminosulfonyl-4-fluoro-5-methylphenyl)-N4-(3-chloro-4-methoxyphenyl)-5-fluoro-N4-methyl-2,4-pyrimidinediamine] | – | 726
COc1ccc(N(C)c2nc(Nc3cc(C)c(Cl)c(S(N)(=O)=O)c3)ncc2F)cc1Cl [VI-21, N2-(3-Aminosulfonyl-4-chloro-5-methylphenyl)-N4-(3-chloro-4-methoxyphenyl)-5-fluoro-N4-methyl-2,4-pyrimidinediamine] | – | 11300
CCCN(c1ccc(OC)c(Cl)c1)c1nc(Nc2ccc(C)c(S(N)(=O)=O)c2)ncc1F [VI-22, N2-(3-Aminosulfonyl-4-methylphenyl)-N4-(3-chloro-4-methoxyphenyl)-5-fluoro-N4-propyl-2,4-pyrimidinediamine] | – | 663
CCCN(c1ccc(OC)c(Cl)c1)c1nc(Nc2cc(C)c(F)c(S(N)(=O)=O)c2)ncc1F [VI-23, N2-(3-Aminosulfonyl-4-fluoro-5-methylphenyl)-N4-(3-chloro-4-methoxyphenyl)-5-fluoro-N4-propyl-2,4-pyrimidinediamine] | – | 597
CCOC(=O)CN(c1ccc(OC)c(Cl)c1)c1nc(Nc2cccc(S(N)(=O)=O)c2)ncc1C(=O)OCC [VI-24, N2-(3-Aminosulfonylphenyl)-5-carboethoxy-N4-(N-carboethoxymethylene-N-3-chloro-4-methoxyphenyl)-2,4-pyrimidinediamine] | 8620 | –
